Laboratory results published in patent US7285569B2, “Tricycles, their manufacture and use as pharmaceutical agents” (Hoff Hoffmann-La Roche Inc., priority 2004, dated 2007).

Legend:
Aurora A = target: T1, Aurora A (Homo sapiens, UniProt O14965); assay: IC50 determination for inhibitors of Aurora A (96 MTP-ELISA); type: biochemical; conditions: His4-tagged full-length Aurora A 250 ng/ml, PKB-GSK2 200 nM, ATP 4 μM, 90 min at room temperature; read-out: IC50 Aurora A kinase inhibition
T1 construct: C-terminally Histidine4 (His4)-tagged Aurora A full-length protein
T1 sequence (O14965 1-403): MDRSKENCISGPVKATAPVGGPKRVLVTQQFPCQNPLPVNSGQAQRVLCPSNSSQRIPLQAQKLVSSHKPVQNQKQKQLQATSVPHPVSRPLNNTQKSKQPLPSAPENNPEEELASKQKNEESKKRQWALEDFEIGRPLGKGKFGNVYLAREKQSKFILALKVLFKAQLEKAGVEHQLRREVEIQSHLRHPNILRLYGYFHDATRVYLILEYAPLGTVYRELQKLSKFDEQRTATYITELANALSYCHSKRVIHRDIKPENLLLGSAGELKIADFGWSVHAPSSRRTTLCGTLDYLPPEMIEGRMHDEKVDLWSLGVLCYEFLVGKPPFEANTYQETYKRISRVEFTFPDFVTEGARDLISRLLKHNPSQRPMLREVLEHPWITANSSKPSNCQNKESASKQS
Description: IC50 Determination for Inhibitors of Aurora A
Aurora A is a serine threonine kinase involved in spindle assembly and chromosome segregation.
The assay is a typically ELISA-type assay where biotinylated substrate (PKB-GSK2) is phosphorylated. Phosphorylation is detected by peroxidase (POD) labelled polyclonal antibody (PAK<M-Ig>S-IgG-POD) and phosphopeptide monoclonal antibody (Mab) (MAK<P-GSK>M-27E5-IgG). The assay is validated for IC50-determination.
Aurora A-His-4 C-terminally Histidine4 (His4)-tagged Aurora A full-length protein, stock solution 0.7 mg/ml, final conc.: 250 ng/ml
PKB-GSK2 biotinylated peptide derived from human GSK3-alpha sequence (Biotin-SGRARTSSFAEPGG-CONH2), stock solution 600 μM, final conc.: 200 nM
ATP Adenosine-5′-triphosphate 1 mM, diluted in kinase buffer, (Roche Diagnostics GmbH, Cat. No.: 127531-001,), final conc.: 4 μM
Kinase buffer 50 mM TRIS, 10 mM MgCl2, 1 mM DTT, 0.1% Tween 20, pH 7.8
This assay is performed in 96-well format for IC50 determination with 5 samples (each with 8 concentrations by twofold testing), 100 μl incubation volume and the following plate layout:
Step/Action 1. Sample preparation: add 24 μl per well samples (descending sequence) diluted in kinase buffer to assay plate (final conc. for DMSO 1%). 2. Add directly 16 μl Aurora-A-his-4 diluted in kinase buffer to assay plate. 3. Add directly 40 μl per well PKB-GSK2/ATP mixture to assay plate, (final conc.: Aurora A=250 ng/ml, GSK2=200 nM, ATP=4 μM). Negative control: without ATP. 4. Incubate assay plate for exactly 90 min at room temperature. 5. Stop reaction by adding 20 μl EDTA in all wells. 6. Wash assay plate 3× with 200 μl washing buffer per well. 7. Add 100 μl MAK<P-GSK>M27E5-IgG (1:10000) and PAK<M-Ig>S-IgG-POD (1:6000) dissolved in 3% BSA/PBS-T to assay plate per well. 8. Incubate assay plate for 60 min at room temperature. 9. Wash assay plate 3× with 200 μl washing buffer per well 10. Add 100 μl ABTS solution to assay plate per well, incubate for approx. 4 min at RT on MTP shaker. 11. Measure absorption at 405/492 nm. 12. Calculate % inhibition as: (1−(Esample−ENC)/(EPC−ENC))×100 13. Calculate IC50 using a non-linear curve fit (XLfit software (ID Business Solution Ltd., Guilford, Surrey, UK))

HCT 116 cells = assay: CellTiter-Glo assay in HCT 116 cells (antiproliferative activity); type: cell-based; conditions: HCT 116 human colon carcinoma cells, 5 days (120 h) incubation, CellTiter-Glo luminescence
Description: Antiproliferative Activity
CellTiter-Glo™ Assay in HCT 116 Cells
The CellTiter-Glo™ Luminescent Cell Viability Assay (Promega) is a homogeneous method of determining the number of viable cells in culture based on quantitation of the ATP present, which signals the presence of metabolically active cells.
HCT 116 cells (human colon carcinoma, ATCC-No. CCI-247) were cultivated in RPMI 1640 medium with GlutaMAX™ I (Invitrogen, Cat-No. 61870-010), 2.5% Fetal Calf Serum (FCS, Sigma Cat-No. F4135 (FBS)); 100 Units/ml penicillin/100 μg/ml streptomycin (=Pen/Strep from Invitrogen Cat. No. 15140). For the assay the cells were seeded in 384 well plates, 1000 cells per well, in the same medium. The next day the test compounds were added in various concentrations ranging from 30 μM to 0.0015 μM (10 concentrations, 1:3 diluted). After 5 days the CellTiter-Glo™ assay was done according to the instructions of the manufacturer (CellTiter-Glo™ Luminescent Cell Viability Assay, from Promega). In brief: the cell-plate was equilibrated to room temperature for approximately 30 minutes and than the CellTiter-Glo™ reagent was added. The contents were carefully mixed for 15 minutes to induce cell lysis. After 45 minutes the luminescent signal was measured in Victor 2, (scanning multiwell spectrophotometer, Wallac).
Medium: RPMI 1640 with GlutaMAX™ I (Invitrogen, Cat-Nr. 61870), 5% FCS (Sigma Cat.-No. F4135), Pen/Strep (Invitrogen, Cat No. 15140).
HCT116 (ATCC-No. CCI-247): 1000 cells in 60 μl per well of 384 well plate (Greiner 781098, μClear-plate white)
After seeding incubate plates 24 h at 37° C., 5% CO2
2nd. Day: Induction (Treatment with Compounds, 10 Concentrations):
In order to achieve a final concentration of 30 μM as highest concentration 3.5 μl of 10 mM compound stock solution were added directly to 163 μl media. Then step e) of the dilution procedure described below, was followed.
In order to achieve the second highest to the lowest concentrations, a serial dilution with dilution steps of 1:3 was followed according to the procedure (a-e) as described here below: • for the second highest concentration add 10 μl of 10 mM stock solution of compound to 20 μl dimethylsulfoxide (DMSO) • dilute 8×1:3 (always 10 μl to 20 μl DMSO) in this DMSO dilution row (results in 9 wells with concentrations from 3333.3 μM to 0.51 μM) • dilute each concentration 1:47.6 (3.5 μl compound dilution to 163 μl media) • add 10 μl of every concentration to 60 μl media in the cell plate resulting in final concentration of DMSO: 0.3% in every well and resulting in 10 final concentration of compounds ranging from 30 μM to 0.0015 μM. • Each compound is tested in triplicate. • Incubate 120 h (5 days) at 37° C., 5% CO2 Analysis:
Add 30 μl CellTiter-Glo™ Reagent (prepared from CellTiter-Glo™ Buffer and CellTiter-Glo™ Substrate (lyophilized) purchased from Promega) per well, • shake 15 minutes at room temperature • incubate further 45 minutes at room temperature without shaking Measurement:
Victor 2 scanning multiwell spectrophotometer (Wallac), Luminescence mode (0.5 sec/read, 477 nm)
Determine IC50 using a non-linear curve fit (XLfit software (ID Business Solution Ltd., Guilford, Surrey, UK))

SMILES	IC50 (Aurora A) [µM]	IC50 (HCT 116 cells) [µM]
CC(=O)N1CC(C)(C)c2cc3nc(-c4cc(C)n[nH]4)[nH]c3cc21 [Example 2, 1-[7,7-Dimethyl-2-(5-methyl-2H-pyrazol-3-yl)-6,7-dihydro-3H-imidazo[4,5-f]indol-5-yl]-ethanone]	0.01 to 0.5	4.67
Cc1cc(-c2nc3cc4c(cc3[nH]2)C(C)(C)CC(=O)N4)n[nH]1 [Example 3, 8,8-Dimethyl-2-(5-methyl-1H-pyrazol-3-yl)-1,5,7,8-tetrahydro-imidazo[4,5-g]quinolin-6-one]	0.212	10 to 100
CC(C)Cc1cc(-c2nc3cc4c(cc3[nH]2)C(C)(C)CC(=O)N4)[nH]n1 [Example 4, 2-(5-Isobutyl-2H-pyrazol-3-yl)-8,8-dimethyl-1,5,7,8-tetrahydro-imidazo[4,5-g]quinolin-6-one]	0.5 to 1.5	7.65
Cc1cc(-c2nc3cc4c(cc3[nH]2)NC(=O)C4(C)C)n[nH]1 [Example 5, 7,7-Dimethyl-2-(5-methyl-2H-pyrazol-3-yl)-5,7-dihydro-3H-imidazo[4,5-f]indol-6-one]	0.01 to 0.5	0.1 to 10
CC(C)Cc1cc(-c2nc3cc4c(cc3[nH]2)C(C)(C)C(=O)N4)[nH]n1 [Example 6, 2-(5-isobutyl-2H-pyrazol-3-yl)-7,7-dimethyl-5,7-dihydro-1H-imidazo[4,5-f]indol-6-one]	0.5 to 1.5	0.1 to 10
Cc1cc(-c2nc3cc4c(cc3[nH]2)NC(=O)C42CCCC2)[nH]n1 [Example 7, 2-(5-Methyl-2H-pyrazol-3-yl)-spiro-5,7-dihydro[cyclopentane-1′,7-imidazo[4,5-f]indol]-6(3H)-one]	0.01 to 0.5	0.1 to 10
Cc1cc(-c2nc3cc4[nH]c(=O)[nH]c4cc3[nH]2)n[nH]1 [Example 9, 6-(5-Methyl-1H-pyrazol-3-yl)-3,5-dihydro-1H-benzo[1,2-d;4,5-d′]diimidazol-2-one]	0.5 to 1.5	10 to 100
Cc1cc(-c2nc3cc4[nH]c(=O)n(C(C)C)c4cc3[nH]2)n[nH]1 [Example 11, 3-Isopropyl-6-(5-methyl-1H-pyrazol-3-yl)-3,5-dihydro-1H-benzo[1,2-d;4,5-d′]diimidazol-2-one]	0.158	10 to 100
Cc1[nH]nc(-c2nc3cc4c(cc3[nH]2)C(C)(C)C(=O)N4)c1C [Example 17, 2-(4,5-Dimethyl-1H-pyrazol-3-yl)-7,7-dimethyl-5,7-dihydro-1H-imidazo[4,5-f]indol-6-one]	0.01 to 0.5	0.1 to 10
CC(C)CCc1cc(-c2nc3cc4c(cc3[nH]2)C(C)(C)C(=O)N4)n[nH]1 [Example 18, 7,7-Dimethyl-2-[5-(3-methyl-butyl)-1H-pyrazol-3-yl]-5,7-dihydro-1H-imidazo[4,5-f]indol-6-one]	0.01 to 0.5	0.1 to 10
CCCc1cc(-c2nc3cc4c(cc3[nH]2)C(C)(C)CC(=O)N4)[nH]n1 [Example 23, 8,8-Dimethyl-2-(5-propyl-2H-pyrazol-3-yl)-1,5,7,8-tetrahydro-imidazo[4,5-g]quinolin-6-one]	0.01 to 0.5	0.1 to 10
CC1(C)CC(=O)Nc2cc3nc(-c4cc[nH]n4)[nH]c3cc21 [Example 24, 8,8-Dimethyl-2-(1H-pyrazol-3-yl)-1,5,7,8-tetrahydro-imidazo[4,5-g]quinolin-6-one]	0.5 to 1.5	0.1 to 10
O=C1Nc2cc3[nH]c(-c4ccn[nH]4)nc3cc2C12CCCC2 [Example 27, 2-(2H-pyrazol-3-yl)-spiro-5,7-dihydro[cyclopentane-1′,7-imidazo[4,5-f]indol]-6(3H)-one]	0.01 to 0.5	0.1 to 10
CC(C)c1cc(-c2nc3cc4c(cc3[nH]2)NC(=O)C42CCCC2)[nH]n1 [Example 28, 2-(5-Isopropyl-2H-pyrazol-3-yl)-spiro-5,7-dihydro[cyclopentane-1′,7-imidazo[4,5-f]indol]-6(3H)-one]	0.5 to 1.5	0.1 to 10
CCCc1cc(-c2nc3cc4c(cc3[nH]2)NC(=O)C42CCCC2)[nH]n1 [Example 29, 2-(5-Propyl-2H-pyrazol-3-yl)-spiro-5,7-dihydro[cyclopentane-1′,7-imidazo[4,5-f]indol]-6(3H)-one]	0.5 to 1.5	
Cc1cc(-c2nc3cc4c(cc3[nH]2)N(C)C(=O)C4(C)C)n[nH]1 [Example 31, 5,7,7-Trimethyl-2-(5-methyl-1H-pyrazol-3-yl)-5,7-dihydro-3H-imidazo[4,5-f]indol-6-one]	0.01 to 0.5	0.1 to 10
Cc1cc(-c2nc3cc4c(cc3[nH]2)C(C)(C)C(=O)N4C(C)C)[nH]n1 [Example 34, 5-Isopropyl-7,7-dimethyl-2-(5-methyl-2H-pyrazol-3-yl)-5,7-dihydro-1H-imidazo[4,5-f]indol-6-one]	0.01 to 0.5	0.1 to 10
CCCc1cc(-c2nc3cc4c(cc3[nH]2)C(C)(C)C(=O)N4C(C)C)[nH]n1 [Example 35, 5-Isopropyl-7,7-dimethyl-2-(5-propyl-2H-pyrazol-3-yl)-5,7-dihydro-1H-imidazo[4,5-f]indol-6-one]	0.01 to 0.5	0.1 to 10
CCCN1C(=O)C(C)(C)c2cc3[nH]c(-c4cc(C)n[nH]4)nc3cc21 [Example 36, 7,7-Dimethyl-2-(5-methyl-2H-pyrazol-3-yl)-5-propyl-5,7-dihydro-1H-imidazo[4,5-f]indol-6-one]	0.01 to 0.5	0.1 to 10
